According to the supplement of paper PMC10307832:

What was measured:
Assay in all cases: relative viability (nuclei count vs DMSO), 5 days (fraction); higher = more cells survive
[1] = compound: CO[C@H]1C[C@@H]2CC[C@@H](C)[C@@](O)(O2)C(=O)C(=O)N2CCCC[C@H]2C(=O)O[C@H]([C@H](C)C[C@@H]2CC[C@@H](OCCO)[C@H](OC)C2)CC(=O)[C@H](C)/C=C(\C)[C@@H](O)[C@@H](OC)C(=O)[C@H](C)C[C@H](C)/C=C/C=C/C=C/1C [Everolimus] + Cc1nc(Nc2ncc(C(=O)Nc3c(C)cccc3Cl)s2)cc(N2CCN(CCO)CC2)n1 [Dasatinib] (partner 0.075 µM)
Method in brief: (§1)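 Nuclei were stained with Hoechst during a one-step fixation (final 0.05% Triton X-100, 1% formaldehyde, 1 ug/ml Hoechst) carried out 5 days after dosing, then counted on 4× images. The cells, lung cancer lines in 1536-well plates, had been dosed by pin tool the day after seeding with one drug alone or a fixed anchor-drug dose plus five library-drug doses (not always all listed) in √10 steps. Relative viability is the nuclei count in treated wells divided by that in vehicle wells, and each value is the median of duplicate plates.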

[2] = compound: CO[C@H]1C[C@@H]2CC[C@@H](C)[C@@](O)(O2)C(=O)C(=O)N2CCCC[C@H]2C(=O)O[C@H]([C@H](C)C[C@@H]2CC[C@@H](OCCO)[C@H](OC)C2)CC(=O)[C@H](C)/C=C(\C)[C@@H](O)[C@@H](OC)C(=O)[C@H](C)C[C@H](C)/C=C/C=C/C=C/1C [Everolimus] + Nc1nc2[nH]cc(CCc3ccc(C(=O)N[C@@H](CCC(=O)O)C(=O)O)cc3)c2c(=O)[nH]1 [Pemetrexed] (partner 0.2 µM)
Method in brief: as §1

[3] = compound: CO[C@H]1C[C@@H]2CC[C@@H](C)[C@@](O)(O2)C(=O)C(=O)N2CCCC[C@H]2C(=O)O[C@H]([C@H](C)C[C@@H]2CC[C@@H](OCCO)[C@H](OC)C2)CC(=O)[C@H](C)/C=C(\C)[C@@H](O)[C@@H](OC)C(=O)[C@H](C)C[C@H](C)/C=C/C=C/C=C/1C [Everolimus] + CS(=O)(=O)CCNCc1ccc(-c2ccc3ncnc(Nc4ccc(OCc5cccc(F)c5)c(Cl)c4)c3c2)o1 [Lapatinib] (partner 2 µM)
Method in brief: as §1

[4] = compound: CO[C@H]1C[C@@H]2CC[C@@H](C)[C@@](O)(O2)C(=O)C(=O)N2CCCC[C@H]2C(=O)O[C@H]([C@H](C)C[C@@H]2CC[C@@H](OCCO)[C@H](OC)C2)CC(=O)[C@H](C)/C=C(\C)[C@@H](O)[C@@H](OC)C(=O)[C@H](C)C[C@H](C)/C=C/C=C/C=C/1C [Everolimus] + C[C@@H](Oc1cc(-c2cnn(C3CCNCC3)c2)cnc1N)c1c(Cl)ccc(F)c1Cl [Crizotinib] (partner 1 µM)
Method in brief: as §1

Cell Line | relative viability ([1]; first compound 0.01 µM) | relative viability ([1]; first compound 0.03162 µM) | relative viability ([1]; first compound 0.1 µM) | relative viability ([1]; first compound 0.3162 µM) | relative viability ([1]; first compound 1 µM) | relative viability ([2]; first compound 0.01 µM) | relative viability ([2]; first compound 0.03162 µM) | relative viability ([2]; first compound 0.1 µM) | relative viability ([2]; first compound 0.3162 µM) | relative viability ([2]; first compound 1 µM) | relative viability ([3]; first compound 0.01 µM) | relative viability ([3]; first compound 0.03162 µM) | relative viability ([3]; first compound 0.1 µM) | relative viability ([3]; first compound 0.3162 µM) | relative viability ([3]; first compound 1 µM) | relative viability ([4]; first compound 0.01 µM) | relative viability ([4]; first compound 0.03162 µM) | relative viability ([4]; first compound 0.1 µM) | relative viability ([4]; first compound 0.3162 µM) | relative viability ([4]; first compound 1 µM)
SW 900 | 0.571 | 0.345 | 0.34 | 0.45 | 0.335 | 0.391 | 0.432 | 0.482 | 0.431 | 0.421 |  |  |  |  |  |  |  |  |  | 
NCI-H522 | 0.776 | 0.624 | 0.629 | 0.71 | 0.724 | 0.735 | 0.79 | 0.521 | 0.548 | 0.732 |  |  |  |  |  |  |  |  |  | 
ABC-1 |  | 0.393 | 0.413 | 0.455 | 0.513 |  |  |  |  |  | 0.925 | 1.13 | 0.751 | 0.816 | 0.873 | 0.74 | 0.799 | 0.709 | 0.584 | 0.761
NCI-H1793 | 0.23 | 0.256 | 0.209 | 0.214 | 0.162 | 0.373 | 0.332 | 0.319 | 0.351 | 0.251 | 0.316 | 0.337 | 0.378 | 0.352 | 0.278 |  |  |  |  | 
NCI-H1395 | 0.345 | 0.396 | 0.395 | 0.358 | 0.336 | 0.595 | 0.571 | 0.693 | 0.693 | 0.7 | 0.886 | 0.755 | 0.585 | 0.614 | 0.869 |  |  |  |  | 
NCI-H1299 |  |  |  |  |  |  |  |  |  |  | 0.975 | 1.06 | 0.974 | 0.994 | 1 | 0.953 | 0.967 | 0.968 | 0.936 | 1.09
ChaGo-K-1 | 0.523 | 0.565 | 0.532 | 0.521 | 0.61 | 0.247 | 0.265 | 0.26 | 0.244 | 0.249 |  |  |  |  |  | 1.04 | 1.2 | 1.07 | 1.02 | 1.14
NCI-H2342 | 0.274 | 0.323 | 0.277 | 0.262 | 0.319 | 0.559 | 0.478 | 0.446 | 0.584 | 0.477 |  |  |  |  |  |  |  |  |  | 
A549 |  |  |  |  |  |  |  |  |  |  | 0.682 | 0.5 | 0.444 | 0.485 | 0.444 | 0.416 | 0.415 | 0.306 | 0.401 | 0.369
IA-LM |  |  |  |  |  |  |  |  |  |  | 0.718 | 0.395 | 0.377 | 0.272 | 0.432 | 0.418 | 0.424 | 0.256 | 0.478 | 0.441
LCLC-103H | 0.404 | 0.305 | 0.35 | 0.319 | 0.322 | 0.43 | 0.453 | 0.472 | 0.45 | 0.438 |  |  |  |  |  | 1.1 | 0.943 | 1.03 | 0.841 | 0.818
Calu-6 |  |  |  |  |  |  |  |  |  |  | 0.987 | 1.02 | 0.907 | 0.927 | 0.994 | 0.808 | 0.692 | 0.642 | 0.674 | 0.748
